In ChEMBL document CHEMBL1201862, “PubChem BioAssay data set” (2004):
Activity calls are given as the source filed them.

Columns and labels:
[1] = molecular target: T1, Protein RecA (Mycobacterium tuberculosis, UniProt P9WHJ3); assay: Fluorescence Cell-Free Homogeneous Dose Retest to Identify Inhibitors of RecA-Intein Splicing Activity. [Related pubchem assays (depositor defined):AID2097, AID2223, AID489010, AID492950]; format: functional
T1 sequence (P9WHJ3 whole entry): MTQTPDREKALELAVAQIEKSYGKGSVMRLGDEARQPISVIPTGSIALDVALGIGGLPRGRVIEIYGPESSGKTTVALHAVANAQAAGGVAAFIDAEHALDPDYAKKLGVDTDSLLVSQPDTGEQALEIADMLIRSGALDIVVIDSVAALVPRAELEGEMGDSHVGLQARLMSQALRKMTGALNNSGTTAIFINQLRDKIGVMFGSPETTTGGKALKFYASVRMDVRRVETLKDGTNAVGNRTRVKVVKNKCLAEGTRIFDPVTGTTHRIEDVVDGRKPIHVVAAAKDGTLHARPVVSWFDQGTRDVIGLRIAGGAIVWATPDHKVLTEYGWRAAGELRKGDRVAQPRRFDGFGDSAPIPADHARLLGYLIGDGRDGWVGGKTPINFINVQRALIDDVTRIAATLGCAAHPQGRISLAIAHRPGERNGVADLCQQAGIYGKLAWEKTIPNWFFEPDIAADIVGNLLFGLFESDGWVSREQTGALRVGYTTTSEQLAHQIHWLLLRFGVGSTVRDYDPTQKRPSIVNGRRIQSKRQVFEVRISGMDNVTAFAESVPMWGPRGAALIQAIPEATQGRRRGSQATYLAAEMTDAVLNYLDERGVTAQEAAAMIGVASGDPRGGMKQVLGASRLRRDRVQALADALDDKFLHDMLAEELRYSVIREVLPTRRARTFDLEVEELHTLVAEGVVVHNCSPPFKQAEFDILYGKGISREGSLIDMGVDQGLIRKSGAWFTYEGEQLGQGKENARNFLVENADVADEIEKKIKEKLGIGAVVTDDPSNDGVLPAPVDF

[2] = molecular target: T2, Replicative DNA helicase DnaB (Mycobacterium tuberculosis, UniProt P9WMR3); assay: DnaB intein splicing inhibitors, dose response, biochemical, cell-free fluorescence (AID 449749); format: functional
T2 sequence (P9WMR3 whole entry): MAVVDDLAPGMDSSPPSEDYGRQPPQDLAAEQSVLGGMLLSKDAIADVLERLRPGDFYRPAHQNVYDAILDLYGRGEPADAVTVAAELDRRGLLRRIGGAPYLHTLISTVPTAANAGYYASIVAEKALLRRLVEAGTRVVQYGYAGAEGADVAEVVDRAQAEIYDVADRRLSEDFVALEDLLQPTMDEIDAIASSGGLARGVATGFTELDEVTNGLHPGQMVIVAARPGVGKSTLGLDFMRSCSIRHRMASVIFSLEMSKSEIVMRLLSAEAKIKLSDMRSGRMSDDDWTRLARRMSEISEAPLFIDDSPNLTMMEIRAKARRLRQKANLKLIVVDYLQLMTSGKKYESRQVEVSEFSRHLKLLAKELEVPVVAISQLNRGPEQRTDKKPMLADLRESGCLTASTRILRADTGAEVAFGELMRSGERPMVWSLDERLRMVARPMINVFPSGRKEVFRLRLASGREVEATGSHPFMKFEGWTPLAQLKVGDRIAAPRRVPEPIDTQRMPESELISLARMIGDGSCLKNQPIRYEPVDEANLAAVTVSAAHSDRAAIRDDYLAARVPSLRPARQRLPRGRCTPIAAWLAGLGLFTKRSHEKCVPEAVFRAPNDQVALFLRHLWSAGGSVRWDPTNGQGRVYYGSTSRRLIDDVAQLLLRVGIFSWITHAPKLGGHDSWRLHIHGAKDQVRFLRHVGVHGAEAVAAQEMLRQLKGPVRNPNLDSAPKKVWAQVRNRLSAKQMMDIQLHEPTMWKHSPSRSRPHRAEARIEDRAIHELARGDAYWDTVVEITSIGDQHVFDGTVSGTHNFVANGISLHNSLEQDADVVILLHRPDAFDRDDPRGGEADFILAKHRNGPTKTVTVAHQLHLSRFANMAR

[3] = molecular target: T3, Tyrosyl-DNA phosphodiesterase 2 (Homo sapiens, UniProt O95551); assay: human TDP2 enzyme inhibitors, dose response, biochemical, epi absorbance, IC50 (AID 743297)
T3 sequence (O95551 whole entry): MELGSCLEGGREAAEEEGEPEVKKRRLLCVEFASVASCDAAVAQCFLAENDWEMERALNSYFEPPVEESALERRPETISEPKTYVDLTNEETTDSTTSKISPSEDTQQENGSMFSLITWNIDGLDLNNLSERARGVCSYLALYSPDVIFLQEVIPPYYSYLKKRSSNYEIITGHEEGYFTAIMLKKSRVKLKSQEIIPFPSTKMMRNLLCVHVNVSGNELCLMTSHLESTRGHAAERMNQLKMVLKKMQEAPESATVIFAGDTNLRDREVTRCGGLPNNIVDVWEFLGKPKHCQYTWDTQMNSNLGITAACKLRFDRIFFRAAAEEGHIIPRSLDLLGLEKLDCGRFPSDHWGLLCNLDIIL

[4] = test system: INS1; assay: beta cell apoptosis inhibitors, cytokine rescue, dose response, luminescence, retest (AID 449756); format: functional, cell-based; conditions: Rattus norvegicus;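 further: cell death triggered by IL-1 beta plus TNF-alpha plus IFN-gamma mixture; protective hits raise ATP signal compared with cytokine alone wells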

Row | SMILES | EC50 [1] | AC50 [2] | IC50 [3] | AC50 [4]
1 | Nc1ccc(N2CCCCC2)c2nonc12 | 2.76 µM (active) | 5.14 µM (active) | 79.7 µM (inactive) | 
2 | Cc1ccc(S(=O)(=O)/N=C2\C=C(Nc3cccc(C(=O)O)c3)C(=O)c3ccccc32)c(C)c1 | 15 µM (active) | 27 µM (active) | 2.58 µM (active) | 6.82 µM (active)
3 | COc1ccc(NC(=O)/C(Cl)=C(/Cl)[S+]([O-])Cc2ccccc2)cn1 (stereo not given) | 3.14 µM (active) | 3.35 µM (active) |  | 1.1 µM (active)
